Laboratory results taken from patent US6911432B2, “Drugs, foods or drinks with the use of algae-derived physiologically active substances” (priority 1997, dated 2005).

How the values were obtained:
[1] = test system: RAW264.7; test: antiproliferation assay, MTT method; type: cell-based, mouse
Procedure: (§1) Each fraction was sterilized by filtration and its 10 μl portion was placed in a well of a 96 well microtiter plate. […] The cell morphology was observed under an optical microscope. […] The absorbance at 590 nm was measured to determine a cell proliferation rate. (2) A 50 mM solution of agarobiose, agarotetraose or agarohexaose obtained in Example 3-(1) was sterilized by filtration and diluted 2-, 4-, 8-, 16-, 32-, 64- and 128-folds with sterilized water. […] [table] The number in Table 3 represents the dilution rate of the dilution added to the group whose absorbance at 590 nm was less than one-half of that of the control group to which water was added. […] Then, for agarobiose, agarotetraose and agarohexaose, the concentrations required for 50% proliferation inhibitory rate (IC50) are calculated based on the change in the absorbance at 590 nm, and are shown in Table 4.

[2] = test system: MCF7; test: antiproliferation assay, MTT method; type: cell-based, human
Procedure: as §1

[3] = test system: HeLa S3; test: antiproliferation assay, MTT method; type: cell-based, human
Procedure: as §1

[4] = test system: T24; test: antiproliferation assay, MTT method; type: cell-based, human
Procedure: as §1

[5] = test system: A549; test: antiproliferation assay, MTT method; type: cell-based, human
Procedure: as §1

[6] = test system: WiDr; test: antiproliferation assay, MTT method; type: cell-based, human
Procedure: as §1

[7] = test system: T-47D; test: antiproliferation assay, MTT method; type: cell-based, human
Procedure: as §1

[8] = test system: RPMI1788; test: antiproliferation assay, MTT method; type: cell-based, human
Procedure: as §1

[9] = test system: HepG2; test: antiproliferation assay, MTT method; type: cell-based, human
Procedure: as §1

[10] = test system: HT-29; test: antiproliferation assay, MTT method; type: cell-based, human
Procedure: as §1

[11] = test system: HCT116; test: antiproliferation assay, MTT method; type: cell-based, human
Procedure: as §1

[12] = test system: MKN45; test: antiproliferation assay, MTT method; type: cell-based, human
Procedure: as §1

[13] = reaction with L-cysteine or L-lysine in phosphate buffered saline at 37° C., thin layer chromatography; type: physicochemical
Procedure: (2) Agarobiose and agarohexaose obtained in Example 14-(1) were dissolved in water to prepare 100 mM aqueous solutions thereof. To each 25 μl of these solutions was added 50 μl of 100 mM aqueous L-cysteine solution, followed by addition of 925 μl of phosphate buffered saline. Then, the mixture was treated at 37° C. for 1 hour or 16 hours. The same reaction was repeated except that an aqueous solution containing the same concentration of L-lysine was used instead of the aqueous L-cysteine solution.
1 μl of a sample from each reaction was spotted on a silica gel sheet 60 F254, developed with 1-butanol:ethanol:water=5:5:1 and detected by orcinol-sulfate method.

[14] = test system: HL-60 cells; test: antiproliferation assay, MTT method, absorbance at 590 nm; type: cell-based, human; details: for antiproliferation activity against HL-60 cells (in words): preparations and fractions, compared with control to which water was added
[15] = test system: lipid peroxide radical production; test: inhibition of lipid peroxide radical production (tert-butyl hydroperoxide, bacterial growth readout); type: cell-based, Staphylococcus aureus 3A; set-up: key to growth of the bacterium (activity of inhibiting lipid peroxide radical production): + represents the sample in which the growth of the bacterium was observed; −represents the sample in which the growth of the bacterium was not observed
Procedure: Staphylococcus aureus 3A (National Collection Of Type Culture, NCTC 8319) was inoculated into 5 ml of brain heart infusion medium (manufactured by Difco, 0037-17-8) and cultured at 37° C. overnight. The bacterial cells were collected by centrifugation, washed with phosphate buffered saline 3 times and then suspended in phosphate buffered saline at a concentration of 1×10^7 colony forming units/ml. A mixture of 100 μl of the cell suspension, 100 μl of an aqueous sample solution, 100 μl of aqueous 1 mg/ml methemoglobin (manufactured by Sigma M9250) solution, 600 μl of phosphated buffered saline and 100 μl of aqueous 50 mM tert-butyl hydroperoxide (manufactured by Katayama Kagaku, 03-4990) solution were reacted at 37° C. for 30 minutes. To the reaction mixture was added 1 ml of 2×NMP medium [prepared by dissolving 8 g of nutrient broth (manufactured by Difco, 0003-01-6), 5 g of trypton (manufactured by Difco, 0123-17-3), 5 g of NaCl, 10 g of mannitol (manufactured by Nacalai Tesque, 213-03) and 0.035 g of phenol red (manufactured by Nacalai Tesque, 268-07) in distilled water to make the volume up to 500 ml. The pH was adjusted to 7.5 with NaOH and then the mixture was sterilized by filtration] to stop the reaction. The resultant mixture was diluted every 3-folds with NMP medium (prepared by diluting 2×NMP medium 2-folds with sterilized water) to prepare 12 serial dilutions and 160 μl of each dilution was placed in each well of a 96-well microtiter plate. The plate was incubated at 37° C. overnight.
In Table 14, + represents the sample in which the growth of the bacterium was observed, and −represents the sample in which the growth of the bacterium was not observed. The concentration shown in the uppermost line of the table is that of the sample in the reaction mixture in which the sample was reacted with tert-butyl hydroperoxide and the bacterial cells at 37° C. for 30 minutes.

[16] = test system: iNOS; test: iNOS expression by western blotting and RT-PCR; type: cell-based; details: protein level by western blotting, messenger RNA level by RT-PCR
Procedure: The confirmation was carried out at protein level by western blotting and at messenger RNA level by RT-PCR. That is, the compounds used in the present invention are useful for treating and preventing diseases that require inhibition of NO production by inhibiting expression of iNOS which is overexpressed by various factors to produce excess NO.

[17] = test system: A-172; test: antiproliferation assay, MTT method; type: cell-based
Procedure: as §1

[18] = test system: HT-1080; test: antiproliferation assay, MTT method; type: cell-based
Procedure: as §1

[19] = dilution rate 1 corresponds to 5 mM in medium
[20] = read-out: IC50 (concentration required for 50% proliferation inhibitory rate)

With `OC[C@H]1O[C@@H](O[C@H]2[C@H]3OC[C@@H]2OC(O)[C@H]3O)[C@H](O)[C@@H](O)[C@H]1O` (mixture of isomers) [Agarobiose, agarobiose] as the compound, how does the “dilution rate of the dilution added to the group whose absorbance at 590 nm was less than one-half of that of the control group” value (shortened to “dilution rate of the dilution added”) [1, 19] read?
The value was 16.

What about the IC50 [1, 20] of the same compound?
The IC50 was 179 µM.

What about the “dilution rate of the dilution added” value [2, 19] of the same compound?
The value was 16.

What about the IC50 [2, 20] of the same compound?
Its IC50 is 274 µM.

What about the “dilution rate of the dilution added” value [3, 19] of the same compound?
Its value is 8.

What about the IC50 [3, 20] of the same compound?
The IC50 was 353 µM.

What about the “dilution rate of the dilution added” value [4, 19] of the same compound?
Its value is 8.

And the IC50 [4, 20]?
The IC50 was 352 µM.

What about the “dilution rate of the dilution added” value [5, 19] of the same compound?
The value was 8.

What about the IC50 [5, 20] of the same compound?
Its IC50 is 570 µM.

What about the “dilution rate of the dilution added” value [6, 19] of the same compound?
The value was 8.

And the IC50 [6, 20]?
The IC50 was 405 µM.

And the “dilution rate of the dilution added” value [7, 19]?
Its value is 16.

And the IC50 [7, 20]?
Its IC50 is 210 µM.

What about the “dilution rate of the dilution added” value [8, 19] of the same compound?
Its value is 64.

And the IC50 [8, 20]?
The IC50 was 44 µM.

What about the “dilution rate of the dilution added” value [9, 19] of the same compound?
Its value is 8.

What about the IC50 [9, 20] of the same compound?
Its IC50 is 652 µM.

And the “dilution rate of the dilution added” value [10, 19]?
Its value is 8.

And the IC50 [10, 20]?
Its IC50 is 622 µM.

What about the “dilution rate of the dilution added” value [11, 19] of the same compound?
Its value is 16.

What about the IC50 [11, 20] of the same compound?
The IC50 was 244 µM.

And the “dilution rate of the dilution added” value [12, 19]?
The value was 8.

What about the IC50 [12, 20] of the same compound?
Its IC50 is 344 µM.

And the “spot of the saccharide on thin layer chromatography after reaction” value (“spot of the saccharide” for short) ([13]; L-cysteine, 1 hour)?
The value was “disappeared”.

And the “spot of the saccharide” value ([13]; L-cysteine, 16 hours)?
Its value is “disappeared”.

And the “spot of the saccharide” value ([13]; L-lysine, 16 hours)?
Its value is “disappeared”.

And the “dilution rate of the dilution added” value ([14]; HL-60, 50 mM solution diluted 2- to 128-fold, dilution rate 1 corresponds to 5 mM in the cell culture medium)?
Its value is 32.

What about the “antiproliferation activity relative to the same concentration of the unreacted saccharide” value ([14]; HL-60, after reaction with L-cysteine at 37° C. for 1 hour) of the same compound?
The value was 1/10.

And the “antiproliferation activity relative to the same concentration of the unreacted saccharide” value ([14]; HL-60, after reaction with L-cysteine at 37° C. for 16 hours)?
Its value is 1/10.

And the “antiproliferation activity relative to the same concentration of the unreacted saccharide” value ([14]; HL-60, after reaction with L-lysine at 37° C. for 16 hours)?
Its value is 1/10.

And the “cell proliferation suppressed as compared with the control group” value ([14]; HL-60, agarobiose at 78 μg/ml, 48 hours)?
The value was “about 86%”.

What about the IC50 ([14]; HL-60, read-out: IC50 (concentration required for 50% proliferation inhibitory rate)) of the same compound?
Its IC50 is 170 µM.

And the “antiproliferation activity against HL-60 cells (in words)” value (shortened to “antiproliferation activity … (in words)”) ([14]; listed as group 4)?
Its value is “an antiproliferation activity was observed”.

And the “antiproliferation activity … (in words)” value ([14]; listed as group 5)?
The value was “an antiproliferation activity was observed”.

And the “antiproliferation activity … (in words)” value ([14]; listed as peak at the elution time 8.87 min.)?
Its value is “had both activities”.

And the “antiproliferation activity … (in words)” value ([14]; listed as peak at the elution time 9.40 min.)?
Its value is “had both activities”.

And the “activity of inhibiting lipid peroxide radical production (in words)” value [15]?
Its value is “strong activity”.

And the “growth of the bacterium (activity of inhibiting lipid peroxide radical production)” value ([15]; 0.1 mM sample in the reaction mixture)?
The value was “+”.

What about the “growth of the bacterium (activity of inhibiting lipid peroxide radical production)” value ([15]; 1 mM sample in the reaction mixture) of the same compound?
The value was “+”.

What about the “inhibition of iNOS expression” value [16] of the same compound?
Its value is “inhibit this iNOS expression”.

And the “dilution rate of the dilution added” value [17, 19]?
The value was 16.

What about the IC50 [17, 20] of the same compound?
Its IC50 is 289 µM.

What about the “dilution rate of the dilution added” value [18, 19] of the same compound?
Its value is 8.

What about the IC50 [18, 20] of the same compound?
Its IC50 is 317 µM.
